US7163696B2, “Pharmaceutical formulations” (Pfizer Inc., priority 2001, dated 2007)

Assays:
[1] = Measurement of Papp values across Caco-2 cell monolayers (Example 15); format: in vitro ADME; settings: human, initial concentration in donor (apical) chamber 25 μM, 37° C.
Excerpt: P Artursson and J Karlsson described the use of monolayers of Caco-2 cells to generate apparent permeability coefficients (Papp values) for drug absorption across the intestinal epithelium in ‘Correlation between oral drug absorption in humans and apparent drug permeability coefficients in human intestinal epithelial (Caco-2) cells’, Biochemical and Biophysical Research Communications, Vol 175 (3), pp 880–885, 1991.
Preferably, when measuring the Papp value, the initial concentration of test compound in the donor chamber is at a relevant therapeutic concentration, for example 25 μM.
Caco-2 cells originating from a human colon carcinoma were obtained from the ATCC (HTB-37) and were used between passage number 24–44. Cells were maintained in MEM with Earles salts containing 2 mM L-glutamine, 1 mM sodium pyruvate, 1% (v/v) MEM non-essential amino acids (Gibco) and 20% foetal calf serum (Sigma) at 37° C. in an atmosphere of 5% CO2 and 90% relative humidity. Falcon 24 well filter inserts (Becton Dickinson) were seeded with 4×10^4 cells/well. […]
Transport data across the Caco-2 cell monolayers is expressed as Papp values. Papp values are calculated according to the equation disclosed by Artursson and Karlsson as follows: Papp=(dQ/dt)(1/AC0), wherein dQ/dt is the permeability rate, Co the initial concentration in the donor chamber, and A the surface area of the monolayer.

[2] = Bioavailability testing by the applicants (unpublished); settings: in vivo

Q: With `COc1cc2nc(N3CCc4c(cccc4NS(C)(=O)=O)C3)nc(N)c2c(-c2ccccn2)c1OC.CS(=O)(=O)O` [4-amino-6,7-dimethoxy-2-(5-methanesulfonamido-1,2,3,4-tetrahydroisoquinol-2-yl)-5-(2-pyridyl)quinazoline mesylate] as the compound, how does the Papp A→B at 2 h, 25 μM [1] read?
A: 11 ×10⁻⁶ cm/s

Q: For `COc1cc2nc(N3CCc4c(cccc4NS(C)(=O)=O)C3)nc(N)c2c(-c2ccccn2)c1OC` [4-amino-6,7-dimethoxy-2-(5-methanesulfonamido-1,2,3,4-tetrahydroisoquinol-2-yl)-5-(2-pyridyl)quinazoline], which “absorption from the colon” value [2] is on record?
A: low, and highly variable
